We go through 10 compounds from patent publication US6664273B2, “Piperidine based MCH antagonists for treatment of obesity and CNS disorders” (Schering Corporation, priority 2001, dated 2003).

In this experiment the target is T1, MCH receptor (Homo sapiens, UniProt Q99705).
T1 construct: expressed in transfected cells; host or cells: CHO cells
T1 sequence (Q99705 whole entry): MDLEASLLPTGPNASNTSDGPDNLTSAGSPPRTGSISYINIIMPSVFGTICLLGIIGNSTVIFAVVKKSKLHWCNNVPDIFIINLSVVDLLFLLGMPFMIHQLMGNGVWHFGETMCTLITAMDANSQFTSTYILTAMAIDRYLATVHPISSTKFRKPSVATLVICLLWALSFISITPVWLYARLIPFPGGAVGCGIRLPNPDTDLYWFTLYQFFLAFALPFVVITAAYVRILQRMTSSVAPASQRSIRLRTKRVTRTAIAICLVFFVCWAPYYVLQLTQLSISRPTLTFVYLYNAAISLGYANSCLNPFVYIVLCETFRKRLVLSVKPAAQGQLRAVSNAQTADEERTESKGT
As to the kind of experiment: MCH Receptor Binding Assay. The settings on record: [125I]-MCH, SPA, membranes from CHO cells expressing the MCH receptor. The method, then: Membranes from CHO cells expressing the MCH receptor were prepared by lysing cells with 5 mM HEPES for 15 min at 4C. Cell lysates were centrifuged ([…], 15 min) and the pellet was re-suspended in 5 mM HEPES. For each 96-well plate (Microlite, Dynex Technologies), 1 mg of cell membranes were incubated with 10 mg of wheat germ agglutinin SPA beads (Amersham) for 5 min at 4 C in a volume of 10 ml of binding buffer (25 mM HEPES, 10 mM MGCl2, 10 mM NaCl, 5 mM MnCl2, 0.1% BSA). The membrane/bead mixture was centrifuged (1500×g, 3.5 min), the supernatant was aspirated, and the pellet was re-suspended in 10 ml binding buffer. The centrifugation, aspiration and re-suspension were then repeated. The membrane/bead mixture (100 μl) was then added to 96-well plates containing 50 μl of 500 pM [^125I]-MCH (NEN) and […] of the appropriate concentration of compound (4× the desired final concentration). Nonspecific binding was determined by including 1 μM MCH in the binding reaction. The binding reaction was incubated at room temperature for 2 h. Plates were then analyzed in a TOPCOUNT microplate scintillation counter (Packard). Data was analyzed and Ki values were determined using GraphPad Prism.
Regarding `N#Cc1cccc(-c2ccc(C3(NCC(=O)Nc4cc(Cl)cc(Cl)c4)CCN(C4CCCC4)CC3)cc2)c1`, the Ki (usually the equilibrium dissociation constant of an inhibitor or competing ligand from its target) was 3.2 nM. The compound `CN(CC(=O)Nc1cc(Cl)cc(Cl)c1)C1(c2ccc(-c3cccc(C#N)c3)cc2)CCN(C2CCCC2)CC1` had a Ki of 8.6 nM. For the compound `N#Cc1cccc(-c2ccc(C3(NCC(=O)Nc4ccc(F)c(Cl)c4)CCNCC3)cc2)c1`, affinity was put at a Ki of 3 nM. Consider `CN(CC(=O)Nc1ccc(F)c(Cl)c1)C1(c2ccc(-c3cccc(C#N)c3)cc2)CCNCC1`, for which the inhibition constant (Ki) was determined as 4.7 nM.

In turn, `CC(=O)N1CCC(c2ccc(-c3cccc(C#N)c3)cc2)(N(C)CC(=O)Nc2ccc(F)c(Cl)c2)CC1` displayed a Ki of 25 nM.

For the compound `CN(CC(=O)Nc1ccc(F)c(Cl)c1)C1(c2ccc(-c3cccc(C#N)c3)cc2)CCN(S(C)(=O)=O)CC1`, the Ki was 70 nM. Next, `O=C(CNC1(c2ccc(-c3cccc(F)c3)cc2)CCN(C2CCCC2)CC1)Nc1ccc(F)c(Cl)c1`: 99 nM; `O=C(CNC1(c2ccc(-c3cccc(Cl)c3)cc2)CCN(C2CCCC2)CC1)Nc1ccc(F)c(Cl)c1`: 63 nM; `COc1cccc(-c2ccc(C3(NCC(=O)Nc4ccc(F)c(Cl)c4)CCN(C4CCCC4)CC3)cc2)c1`: 77 nM. `CS(=O)(=O)c1ccc(CN2CCC(OCC(=O)Nc3cc(Cl)cc(Cl)c3)(c3ccc(-c4cccc(C#N)c4)cc3)CC2)cc1` yielded a Ki of 76 nM.
